Reference: publication PMC10047683, “A Novel Family of Lysosomotropic Tetracyclic Compounds for Treating Leukemia” (Cancers, 2023)

Tests used:
AML cell lines = assay: Seahorse oxygen consumption (OCR); assay type: cell-based; conditions: 5 and 10 µM, 24 h
Protocol: Seahorse studies were performed using the Agilent Seahorse XF Real-Time ATP Rate Assay Kit. […] Cells were washed and suspended in Seahorse medium (Seahorse XF medium with 2 mM glutamine, 10 mM glucose, 2 mM pyruvate) at a concentration of 1.4 × 10^6 (Mono Mac1) and 2.4 × 10^6 (HL60) cells per mL; 50 μL per well were seeded in 96-well Seahorse plates precoated with polylysine, centrifuged, and left to adhere for 20 min at 37 °C before adding prewarmed Seahorse medium to a final volume of 180 μL per well. Basal OCR and ECAR were measured, and the ATP rate assay was performed with the sequential injection of 1.5 μM oligomycin and 0.5 μM rotenone/antimycin A. A detailed description of this protocol was provided by the manufacturers. Mitochondrial ROS was quantified using the MitoSOX Red Mitochondrial Superoxide Indicator (Thermo Fischer Scientific, Waltham, MA, USA), as previously described. The activation of executive caspases was determined using CaspaseGlo® 3/7 Assay (Promega), following the manufacturer’s recommendations. The detection of Annexin-V staining was also described previously.

ADME-Tox: solubility = assay type: physicochemical
Protocol: (§1) All ADMET studies were performed in Eurofins Discovery Services (CEREP laboratories, Celle-Lévescault France). The pharmacokinetic studies were performed in Draconis Pharma SL (Barcelona, Spain) in CD-1 mice treated with 30 mg/kg EDK87 or EDK88 via SC or OG. Blood was collected by cardiac puncture at 0.5, 1, 2, 4, or 24 h.

HS-5 = assay: Pancancer cell line panel viability (nontumor line); assay type: cell-based; conditions: HS-5 (nontumor); 10 µM; 48 h
Protocol: (§2) First, 2 × 10^5 (72 h assays in cell lines (Supplementary File S1)), 3 × 10^5 (48 h assays in cell lines) or 7.5 × 10^5 (primary AML, healthy donor buffy coats) cells per mL were cultured in 96-well plates, and all drugs were added at the indicated concentrations. In α-tocopherol experiments, cells were treated with growing concentrations of α-tocopherol and EDK drugs for 48 h. In the NAC and 3MA experiments, treatment was simultaneous with EDK compounds. In glucose deprivation experiments, cells were cultivated with a standard medium (glucose high, 2 g/L), a standard medium without glucose, or a standard medium with galactose (2 g/L) and without glucose. Cell viability was measured via 7-AAD (eBioscience) exclusion and Hoechst33342 (Sigma-Aldrich, St. Louis, MO, USA) positivity staining via flow cytometry, and the cell count was obtained through volume. In the experiments with the primary cells, analyses were performed inside the blast population as detected via blast gates (CD45^low SSC^int). For solid tumor cell lines, viability was analyzed using CellTiter-Glo® Luminescent Cell Viability Assay (Promega).
(§3) AML cell lines and cell cultures
(§4) Cell lines HL-60 (ACC-3), KG-1 (ACC-14), MonoMac-1 (ACC-252), Kasumi-1 […]
(§5) obtained from DSMZ. Cell lines THP-1 (TIB-202TM), MCF-7 (HTB-22™), MDA- […]
(§6) 3216™) and HS-5 (CRL-11882™) were obtained from ATCC. HBL-2 cell line was kindly supplied by Dr. Pérez-Galán (IDIBAPS, Barcelona, Spain). SKM-1 and U937 were kindly provided by Dr. Marcus Buschbeck (IJC, Badalona, Spain). All cell lines were cultured in the conditions indicated by the providers, and were tested for mycoplasma on a monthly basis.
(§7) All drugs were resuspended in H2O (Thermo Fischer Scientific), DMSO (Sigma-Aldrich) or ethanol (VWR) according to manufacturer’s specifications. - tocopherol, 3-methyladenine (3MA), arsenic trioxide (ATO) and N-acetyl-L-cysteine (NAC) were purchased from Sigma Aldrich. Chloroquine diphosphate was purchased from Merck. Etoposide and ionomycin were purchased from […]
(§8) (1 picture or pasted object on this page, not shown here)

HEK-293T = assay: as above; assay type: cell-based; conditions: HEK-293T (nontumor); 10 µM; 48 h
Protocol: as §2, §3, §4, §5, §6, §7, §8

[1] = ADME-Tox: clearance / metabolic rate; assay type: in vitro ADME
Protocol: as §1

Jurkat = assay: Pancancer cell line panel viability; assay type: cell-based; conditions: 10 µM, 48 h
Protocol: as §2, §3, §4, §5, §6, §7, §8

RAMOS = assay: Pancancer cell line panel viability; assay type: cell-based; conditions: 10 µM, 48 h
Protocol: as §2, §3, §4, §5, §6, §7, §8

HCT-116 = assay: Pancancer cell line panel viability; assay type: cell-based; conditions: 10 µM, 48 h
Protocol: as §2, §3, §4, §5, §6, §7, §8

K562 = assay: Pancancer cell line panel viability; assay type: cell-based; conditions: 10 µM, 48 h
Protocol: as §2, §3, §4, §5, §6, §7, §8

A549 = assay: Pancancer cell line panel viability; assay type: cell-based; conditions: 10 µM, 48 h
Protocol: as §2, §3, §4, §5, §6, §7, §8

MDA-MB-231 = assay: Pancancer cell line panel viability; assay type: cell-based; conditions: 10 µM, 48 h
Protocol: as §2, §3, §4, §5, §6, §7, §8

HOP62 = assay: Pancancer cell line panel viability; assay type: cell-based; conditions: 10 µM, 48 h
Protocol: as §2, §3, §4, §5, §6, §7, §8

SR = assay: Pancancer cell line panel viability; assay type: cell-based; conditions: 10 µM, 48 h
Protocol: as §2, §3, §4, §5, §6, §7, §8

CAKI = assay: Pancancer cell line panel viability; assay type: cell-based; conditions: 10 µM, 48 h
Protocol: as §2, §3, §4, §5, §6, §7, §8

PC-3 = assay: Pancancer cell line panel viability; assay type: cell-based; conditions: 10 µM, 48 h
Protocol: as §2, §3, §4, §5, §6, §7, §8

U266 = assay: Pancancer cell line panel viability; assay type: cell-based; conditions: 10 µM, 48 h
Protocol: as §2, §3, §4, §5, §6, §7, §8

OVCAR = assay: Pancancer cell line panel viability; assay type: cell-based; conditions: 10 µM, 48 h
Protocol: as §2, §3, §4, §5, §6, §7, §8

JJN3 = assay: Pancancer cell line panel viability; assay type: cell-based; conditions: 10 µM, 48 h
Protocol: as §2, §3, §4, §5, §6, §7, §8

MDA-MB-435 = assay: Pancancer cell line panel viability; assay type: cell-based; conditions: 10 µM, 48 h
Protocol: as §2, §3, §4, §5, §6, §7, §8

HCT-15 = assay: Pancancer cell line panel viability; assay type: cell-based; conditions: 10 µM, 48 h
Protocol: as §2, §3, §4, §5, §6, §7, §8

NCI = assay: Pancancer cell line panel viability; assay type: cell-based; conditions: 10 µM, 48 h
Protocol: as §2, §3, §4, §5, §6, §7, §8

MOLT4 = assay: Pancancer cell line panel viability; assay type: cell-based; conditions: 10 µM, 48 h
Protocol: as §2, §3, §4, §5, §6, §7, §8

HBL2 = assay: Pancancer cell line panel viability; assay type: cell-based; conditions: 10 µM, 48 h
Protocol: as §2, §3, §4, §5, §6, §7, §8

ACHN = assay: Pancancer cell line panel viability; assay type: cell-based; conditions: 10 µM, 48 h
Protocol: as §2, §3, §4, §5, §6, §7, §8

MCF-7 = assay: Pancancer cell line panel viability; assay type: cell-based; conditions: 10 µM, 48 h
Protocol: as §2, §3, §4, §5, §6, §7, §8

DU-145 = assay: Pancancer cell line panel viability; assay type: cell-based; conditions: 10 µM, 48 h
Protocol: as §2, §3, §4, §5, §6, §7, §8

M14 = assay: Pancancer cell line panel viability; assay type: cell-based; conditions: 10 µM, 48 h
Protocol: as §2, §3, §4, §5, §6, §7, §8

GRANTA = assay: Pancancer cell line panel viability; assay type: cell-based; conditions: 10 µM, 48 h
Protocol: as §2, §3, §4, §5, §6, §7, §8

hERG = target: T1, hERG (Homo sapiens, UniProt Q12809); assay: In vitro hERG inhibition; assay type: biochemical
T1 construct: Eurofins Discovery Services (CEREP laboratories)
Protocol: as §1

T1 sequence (Q12809 whole entry): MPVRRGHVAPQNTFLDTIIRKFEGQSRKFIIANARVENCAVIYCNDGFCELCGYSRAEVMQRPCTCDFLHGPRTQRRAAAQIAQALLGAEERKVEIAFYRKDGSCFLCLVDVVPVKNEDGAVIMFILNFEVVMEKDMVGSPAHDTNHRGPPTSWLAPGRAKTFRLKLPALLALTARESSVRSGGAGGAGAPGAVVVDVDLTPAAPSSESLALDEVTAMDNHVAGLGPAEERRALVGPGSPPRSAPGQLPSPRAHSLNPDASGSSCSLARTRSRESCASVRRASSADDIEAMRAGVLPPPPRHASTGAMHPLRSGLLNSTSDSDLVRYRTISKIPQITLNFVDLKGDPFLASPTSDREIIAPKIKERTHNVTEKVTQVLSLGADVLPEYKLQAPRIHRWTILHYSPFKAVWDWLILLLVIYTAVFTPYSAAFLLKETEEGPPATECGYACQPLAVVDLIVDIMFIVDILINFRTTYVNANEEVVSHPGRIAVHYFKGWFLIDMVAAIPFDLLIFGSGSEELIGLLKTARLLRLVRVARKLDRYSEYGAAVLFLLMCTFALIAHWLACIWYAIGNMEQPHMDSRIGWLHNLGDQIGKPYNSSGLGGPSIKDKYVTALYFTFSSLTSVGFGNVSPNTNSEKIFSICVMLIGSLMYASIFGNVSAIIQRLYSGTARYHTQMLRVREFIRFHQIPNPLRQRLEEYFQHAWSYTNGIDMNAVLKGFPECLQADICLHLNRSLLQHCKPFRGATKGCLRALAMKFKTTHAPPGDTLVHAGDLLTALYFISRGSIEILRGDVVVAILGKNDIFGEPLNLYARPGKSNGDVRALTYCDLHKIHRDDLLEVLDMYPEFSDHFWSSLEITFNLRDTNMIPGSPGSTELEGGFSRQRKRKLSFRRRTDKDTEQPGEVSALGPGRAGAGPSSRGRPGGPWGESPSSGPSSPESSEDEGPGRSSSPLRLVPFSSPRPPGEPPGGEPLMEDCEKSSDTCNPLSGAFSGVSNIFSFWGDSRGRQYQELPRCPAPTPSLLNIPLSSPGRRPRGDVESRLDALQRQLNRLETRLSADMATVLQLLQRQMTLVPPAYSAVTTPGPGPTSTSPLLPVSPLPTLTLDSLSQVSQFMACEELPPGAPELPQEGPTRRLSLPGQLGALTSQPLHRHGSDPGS

In the case of `CN1CCC(=C2c3ccccc3-c3c2sc2ccccc32)CC1` [EDK-87], the “oxygen consumption (OCR)” value (AML cell lines) is reported as “drastic reduction in oxygen consumption”, the “solubility as compared to EDK-88” value (ADME-Tox: solubility) is reported as “lower” and the # Live cells refer to control (HS-5) is reported as 71%. For the same molecule, the # Live cells refer to control (HEK-293T) was 79%, the “metabolic rate as compared to EDK-88” value [1] was “higher” and the # Live cells refer to control (Jurkat) was 51%. For the same molecule, the # Live cells refer to control (RAMOS) was 74%, the # Live cells refer to control (HCT-116) was 64% and the # Live cells refer to control (K562) was 87%. The # Live cells refer to control (A549) was 74%, the # Live cells refer to control (MDA-MB-231) was 47% and the # Live cells refer to control (HOP62) was 44%. The # Live cells refer to control (SR) was 42%, the # Live cells refer to control (CAKI) was 58% and the # Live cells refer to control (PC-3) was 65%. For the same molecule, the # Live cells refer to control (U266) was 70%, the # Live cells refer to control (OVCAR) was 59% and the # Live cells refer to control (JJN3) was 55%. For the same molecule, the # Live cells refer to control (MDA-MB-435) was 11%, the # Live cells refer to control (HCT-15) was 52% and the # Live cells refer to control (NCI) was 45%. For the same molecule, the # Live cells refer to control (MOLT4) was 25%, the # Live cells refer to control (HBL2) was 58% and the # Live cells refer to control (ACHN) was 70%. For the same molecule, the # Live cells refer to control (MCF-7) was 32%, the # Live cells refer to control (DU-145) was 57% and the # Live cells refer to control (M14) was 21%. The # Live cells refer to control (GRANTA) was 35% and the hERG inhibition (hERG) was “concerning results”.
